Laboratory results as given in patent publication US20040247699A1, “Method for the prevention or treatment of overweight in mammals” (priority 2002, published 2004).

Assay: Effects on physical activity (ambulatory counts)
Settings: 12.5 mg caffeine per kg rat oral, period when rats are normally asleep
Protocol: In the study as described in example 1, the physical activity of the animals was determined by monitoring ambulatory counts.
The effects of caffeine on physical activity was tested in rats and compared to placebo (water). In a placebo controlled cross-over design as described in example 1, the effects of administration of either 12.5 mg caffeine per kg of rat or water on physical activity was determined. Physical activity of the animals was determined by monitoring ambulatory counts.
Results are shown as the average ambulatory counts per 26 minutes.

Cn1c(=O)c2c(ncn2C)n(C)c1=O [caffeine]
ambulatory counts per 26 minutes compared to placebo: ambulatory counts increase
